# Laboratory results reported in PubChem BioAssay AID1918949 (Molecular Pharmacology Branch, DTP, NCI, 2023).
# System: K24384-001-R-PDC complex spheroid viability
# Assay: Anticancer human tumor K24384-001-R-PDC patient-derived pancreatic adenocarcinoma cell line growth inhibition
# Conditions: for IC50: curve of first compound; for viability, T/C: stronger effect = lower value
# Summary of the method: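 Multicellular complex spheroids of tumor cells with human endothelial cells (HUVEC) and mesenchymal stem cells; the LSD1 inhibitor iadademstat was combined with standard-of-care or investigational agents. Top concentration at or near clinical Cmax, half-log dilutions; final DMSO ≤0.25%.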
# [1] = second compound 0.1 µM, first compound 0.0316 µM
# [2] = second compound 0.1 µM, first compound 0.1 µM
# [3] = second compound 0.1 µM, first compound 0.316 µM
# [4] = second compound 0.1 µM, first compound 1 µM
# [5] = second compound 0.316 µM, first compound 0.0316 µM
# [6] = second compound 0.316 µM, first compound 0.1 µM
# [7] = second compound 0.316 µM, first compound 0.316 µM
# [8] = second compound 0.316 µM, first compound 1 µM
# [9] = second compound 1 µM, first compound 0.0316 µM
# [10] = second compound 1 µM, first compound 0.1 µM
# [11] = second compound 1 µM, first compound 0.316 µM
# [12] = second compound 1 µM, first compound 1 µM
# [13] = second compound 3.16 µM, first compound 0.0316 µM
# [14] = second compound 3.16 µM, first compound 0.1 µM
# [15] = second compound 3.16 µM, first compound 0.316 µM
# [16] = second compound 3.16 µM, first compound 1 µM
# [17] = second compound 10 µM, first compound 0.0316 µM
# [18] = second compound 10 µM, first compound 0.1 µM
# [19] = second compound 10 µM, first compound 0.316 µM
# [20] = second compound 10 µM, first compound 1 µM
# [21] = second compound 0.1 µM, first compound 0.00316 µM
# [22] = second compound 0.1 µM, first compound 0.01 µM
# [23] = second compound 0.316 µM, first compound 0.00316 µM
# [24] = second compound 0.316 µM, first compound 0.01 µM
# [25] = second compound 1 µM, first compound 0.00316 µM
# [26] = second compound 1 µM, first compound 0.01 µM
# [27] = second compound 3.16 µM, first compound 0.00316 µM
# [28] = second compound 3.16 µM, first compound 0.01 µM
# [29] = second compound 10 µM, first compound 0.00316 µM
# [30] = second compound 10 µM, first compound 0.01 µM
# 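Further: spheroids exposed to agents for seven days before luminescence viability reading.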
# 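Wherever viability, T/C is given: 100% = DMSO vehicle control viability.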
Structure (SMILES),IC50 (second compound 0.1 µM) [nM],IC50 (second compound 0.316 µM) [nM],IC50 (second compound 1 µM) [nM],IC50 (second compound 3.16 µM) [nM],IC50 (second compound 10 µM) [nM],"viability, T/C [1] [%]","viability, T/C [2] [%]","viability, T/C [3] [%]","viability, T/C [4] [%]","viability, T/C [5] [%]","viability, T/C [6] [%]","viability, T/C [7] [%]","viability, T/C [8] [%]","viability, T/C [9] [%]","viability, T/C [10] [%]","viability, T/C [11] [%]","viability, T/C [13] [%]","viability, T/C [14] [%]","viability, T/C [17] [%]","viability, T/C [18] [%]",also measured
O=C(c1cc(Cc2n[nH]c(=O)c3ccccc23)ccc1F)N1CCN(C(=O)C2CC2)CC1 + NC1CCC(NC2CC2c2ccccc2)CC1,> 10000,> 10000,> 10000,> 10000,> 10000,75.1,79.7,81.6,86.5,74.6,74.8,79.5,71.2,78.1,75.8,75.3,81.9,81.8,75.2,101,"viability, T/C (second compound 0.1 µM, first compound 3.16 µM): 69.3%; viability, T/C (second compound 0.1 µM, first compound 10 µM): 91.8%; viability, T/C (second compound 0.316 µM, first compound 3.16 µM): 79.4%; viability, T/C (second compound 0.316 µM, first compound 10 µM): 77.8%; viability, T/C [12]: 72.4%; viability, T/C (second compound 1 µM, first compound 3.16 µM): 75.2%; viability, T/C (second compound 1 µM, first compound 10 µM): 81%; viability, T/C [15]: 77.8%; viability, T/C [16]: 75.6%; viability, T/C (second compound 3.16 µM, first compound 3.16 µM): 69.7%; viability, T/C (second compound 3.16 µM, first compound 10 µM): 71.1%; viability, T/C [19]: 68.3%; viability, T/C [20]: 73.4%; viability, T/C (second compound 10 µM, first compound 3.16 µM): 65%; viability, T/C (second compound 10 µM, first compound 10 µM): 68.8%"
Cn1ncnc1C1c2n[nH]c(=O)c3cc(F)cc(c23)NC1c1ccc(F)cc1 (stereo not given) + NC1CC1c1ccc(-c2cccc(O)c2)cc1,> 100,> 100,> 100,> 100,> 100,77.6,77.8,–,–,93.8,73.3,–,–,78.3,102,–,102,75.8,96,86.5,"viability, T/C (second compound 0.1 µM, first compound 0.000316 µM): 92.8%; viability, T/C (second compound 0.1 µM, first compound 0.001 µM): 121%; viability, T/C [21]: 104%; viability, T/C [22]: 88.4%; viability, T/C (second compound 0.316 µM, first compound 0.000316 µM): 101%; viability, T/C (second compound 0.316 µM, first compound 0.001 µM): 105%; viability, T/C [23]: 84.4%; viability, T/C [24]: 85.8%; viability, T/C (second compound 1 µM, first compound 0.000316 µM): 108%; viability, T/C (second compound 1 µM, first compound 0.001 µM): 96.7%; viability, T/C [25]: 84.5%; viability, T/C [26]: 94.2%; viability, T/C (second compound 3.16 µM, first compound 0.000316 µM): 91.7%; viability, T/C (second compound 3.16 µM, first compound 0.001 µM): 96.9%; viability, T/C [27]: 93.6%; viability, T/C [28]: 101%; viability, T/C (second compound 10 µM, first compound 0.000316 µM): 108%; viability, T/C (second compound 10 µM, first compound 0.001 µM): 111%; viability, T/C [29]: 126%; viability, T/C [30]: 94.9%"
CC1COCCN1c1cc(-c2ccnn2C)c2ccnc(-c3ccn[nH]3)c2n1 (stereo not given) + NC1CCC(NC2CC2c2ccccc2)CC1,56.6,< 3.16,7.71,9.22,5.07,49,45.1,52.2,42.4,42.5,43.3,51.6,44.4,41.6,40.2,47.5,41.8,42,39.2,34.7,"viability, T/C [21]: 54.7%; viability, T/C [22]: 56.7%; viability, T/C [23]: 52.6%; viability, T/C [24]: 48.3%; viability, T/C [25]: 51%; viability, T/C [26]: 56.5%; viability, T/C [12]: 44.2%; viability, T/C [27]: 55.4%; viability, T/C [28]: 51.7%; viability, T/C [15]: 49.7%; viability, T/C [16]: 36.2%; viability, T/C [29]: 48.4%; viability, T/C [30]: 54.9%; viability, T/C [19]: 33.2%; viability, T/C [20]: 31.6%"
